From article PMC5218480 (PLoS ONE, 2017)

Test system: MV-4-11 cells
Assay: Gene expression microarray analysis (Affymetrix PrimeView) and GSEA
Assay type: cell-based, human
Parameters: RFU PODN (11730768_x_at) / Fold change /veh PODN (11730768_x_at) / RFU LINC00158 (11744669_a_at) / Fold change /veh LINC00158 (11744669_a_at) / RFU DUSP10 (11751237_a_at) / Fold change /veh DUSP10 (11751237_a_at) / RFU ID3 (11757404_x_at) / Fold change /veh ID3 (11757404_x_at) / RFU PLEKHG5 (11737974_s_at) / Fold change /veh PLEKHG5 (11737974_s_at) / RFU LRRC4B (11730491_at) / Fold change /veh LRRC4B (11730491_at) / RFU GIMAP4 (11747438_a_at) / Fold change /veh GIMAP4 (11747438_a_at) / RFU KRT8 (11758183_x_at) / Fold change /veh KRT8 (11758183_x_at) / RFU CNN1 (11734310_a_at) / Fold change /veh CNN1 (11734310_a_at) / RFU VPS37D (11726825_at) / Fold change /veh VPS37D (11726825_at) / RFU C10orf10 (11716522_x_at) / Fold change /veh C10orf10 (11716522_x_at) / RFU KIR2DL2 /// KIR2DL4 /// KIR2DL5A /// KIR2DL5B /// KIR2DS1 /// KIR2DS2 /// KIR2DS3 /// KIR2DS4 /// KIR3DL3 /// KIR3DL3 /// KIR3DS1 (11738374_at) / Fold change /veh KIR2DL2 /// KIR2DL4 /// KIR2DL5A /// KIR2DL5B /// KIR2DS1 /// KIR2DS2 /// KIR2DS3 /// KIR2DS4 /// KIR3DL3 /// KIR3DL3 /// KIR3DS1 (11738374_at) / RFU C1QL1 (11718748_at) / Fold change /veh C1QL1 (11718748_at) / RFU TMPRSS4 (11747572_a_at) / Fold change /veh TMPRSS4 (11747572_a_at) / RFU HAMP (11756126_x_at) / Fold change /veh HAMP (11756126_x_at) / RFU RNFT2 (11725882_a_at) / Fold change /veh RNFT2 (11725882_a_at) / RFU NR4A2 (11747474_a_at) / Fold change /veh NR4A2 (11747474_a_at) / RFU ABCC12 (11746883_a_at) / Fold change /veh ABCC12 (11746883_a_at) / RFU TMEM136 (11760407_x_at) / Fold change /veh TMEM136 (11760407_x_at) / RFU CLDN22 /// WWC2 (11732394_at) / Fold change /veh CLDN22 /// WWC2 (11732394_at) / RFU HLA-DPB1 (11760878_x_at) / Fold change /veh HLA-DPB1 (11760878_x_at) / RFU SPINT1 (11716480_a_at) / Fold change /veh SPINT1 (11716480_a_at) / RFU GAP43 (11754022_s_at) / Fold change /veh GAP43 (11754022_s_at) / RFU A4GNT (11735810_at) / Fold change /veh A4GNT (11735810_at) / RFU PRB3 (11715151_x_at) / Fold change /veh PRB3 (11715151_x_at) / RFU TUBB4B (11761932_at) / Fold change /veh TUBB4B (11761932_at) / RFU CAPN14 (11732068_a_at) / Fold change /veh CAPN14 (11732068_a_at) / RFU TMCC2 (11721928_a_at) / Fold change /veh TMCC2 (11721928_a_at) / RFU IRGQ (11745062_a_at) / Fold change /veh IRGQ (11745062_a_at) / RFU FAM174B (11720279_a_at) / Fold change /veh FAM174B (11720279_a_at) / RFU TMPRSS4 (11748680_a_at) / Fold change /veh TMPRSS4 (11748680_a_at) / RFU FAM212B (11763350_a_at) / Fold change /veh FAM212B (11763350_a_at) / RFU PLEKHG5 (11743358_a_at) / Fold change /veh PLEKHG5 (11743358_a_at) / RFU ZSCAN30 (11745921_a_at) / Fold change /veh ZSCAN30 (11745921_a_at) / RFU CMKLR1 (11741424_a_at) / Fold change /veh CMKLR1 (11741424_a_at) / RFU LOC101060620 /// MAPK8IP1 (11723275_at) / Fold change /veh LOC101060620 /// MAPK8IP1 (11723275_at) / RFU SPTSSB (11747773_x_at) / Fold change /veh SPTSSB (11747773_x_at) / RFU PRSS12 (11739890_at) / Fold change /veh PRSS12 (11739890_at) / RFU BIN1 (11741810_x_at) / Fold change /veh BIN1 (11741810_x_at) / RFU WNT11 (11732464_a_at) / Fold change /veh WNT11 (11732464_a_at) / RFU C10orf10 (11716521_a_at) / Fold change /veh C10orf10 (11716521_a_at) / RFU C5orf56 (11738089_at) / Fold change /veh C5orf56 (11738089_at) / RFU CYB561 (11721691_x_at) / Fold change /veh CYB561 (11721691_x_at) / RFU ANKRD19P (11752326_a_at) / Fold change /veh ANKRD19P (11752326_a_at) / RFU OR2T12 /// OR2T33 /// OR2T8 (11738714_s_at) / Fold change /veh OR2T12 /// OR2T33 /// OR2T8 (11738714_s_at) / RFU VCAN (11748164_a_at) / Fold change /veh VCAN (11748164_a_at) / RFU JSRP1 (11732532_at) / Fold change /veh JSRP1 (11732532_at) / RFU KRTAP10-11 (11738290_x_at) / Fold change /veh KRTAP10-11 (11738290_x_at) / RFU MYO3A (11730013_a_at) / Fold change /veh MYO3A (11730013_a_at) / RFU EBF3 (11725865_a_at) / Fold change /veh EBF3 (11725865_a_at) / RFU CAMK2N1 (11719241_x_at) / Fold change /veh CAMK2N1 (11719241_x_at) / RFU C5orf56 (11738088_a_at) / Fold change /veh C5orf56 (11738088_a_at) / RFU OLFML3 (11715873_a_at) / Fold change /veh OLFML3 (11715873_a_at) / RFU LOC100653217 /// NTM (11731650_a_at) / Fold change /veh LOC100653217 /// NTM (11731650_a_at) / RFU MAPK11 (11762145_a_at) / Fold change /veh MAPK11 (11762145_a_at) / RFU FIZ1 (11724087_x_at) / Fold change /veh FIZ1 (11724087_x_at) / RFU OASL (11726364_x_at) / Fold change /veh OASL (11726364_x_at) / RFU SOX15 (11748057_x_at) / Fold change /veh SOX15 (11748057_x_at) / RFU CD79A (11719716_a_at) / Fold change /veh CD79A (11719716_a_at) / RFU HIST1H1D (11736915_at) / Fold change /veh HIST1H1D (11736915_at) / RFU CASKIN2 (11723855_a_at) / Fold change /veh CASKIN2 (11723855_a_at) / RFU LOC730098 (11760151_x_at) / Fold change /veh LOC730098 (11760151_x_at) / RFU OR4N2 (11742367_at) / Fold change /veh OR4N2 (11742367_at) / RFU PRRT2 (11749266_a_at) / Fold change /veh PRRT2 (11749266_a_at) / RFU SNX32 (11753110_a_at) / Fold change /veh SNX32 (11753110_a_at) / RFU CDHR5 (11726645_a_at) / Fold change /veh CDHR5 (11726645_a_at) / RFU RCAN1 (11760418_a_at) / Fold change /veh RCAN1 (11760418_a_at) / RFU FAM167A (11723789_a_at) / Fold change /veh FAM167A (11723789_a_at) / RFU FAM26E (11764081_at) / Fold change /veh FAM26E (11764081_at) / RFU ISYNA1 (11749810_s_at) / Fold change /veh ISYNA1 (11749810_s_at) / RFU ACY1 (11761880_at) / Fold change /veh ACY1 (11761880_at) / RFU 11764098_at / Fold change /veh 11764098_at / RFU SAMD14 (11745864_x_at) / Fold change /veh SAMD14 (11745864_x_at) / RFU NPB (11741838_a_at) / Fold change /veh NPB (11741838_a_at) / RFU TMPRSS6 (11731388_a_at) / Fold change /veh TMPRSS6 (11731388_a_at) / RFU KRTAP10-2 (11738614_at) / Fold change /veh KRTAP10-2 (11738614_at) / RFU ARHGAP8 /// PRR5-ARHGAP8 (11727945_x_at) / Fold change /veh ARHGAP8 /// PRR5-ARHGAP8 (11727945_x_at) / RFU KRTAP5-7 /// NADSYN1 (11734609_at) / Fold change /veh KRTAP5-7 /// NADSYN1 (11734609_at) / RFU RASL12 (11751679_a_at) / Fold change /veh RASL12 (11751679_a_at) / RFU CDKN2B (11736163_a_at) / Fold change /veh CDKN2B (11736163_a_at) / RFU PRF1 (11729649_at) / Fold change /veh PRF1 (11729649_at) / RFU, ZNF638 /// ZNF638-IT1 / Fold change vs veh, ZNF638 /// ZNF638-IT1 / RFU, PANK3 / Fold change vs veh, PANK3 / RFU, SH3YL1 / Fold change vs veh, SH3YL1 / RFU, ZEB2 / Fold change vs veh, ZEB2 / RFU, NRIP1 / Fold change vs veh, NRIP1 / RFU, PTTG1IP / Fold change vs veh, PTTG1IP / RFU, CAPN2 / Fold change vs veh, CAPN2 / RFU, MED14 / Fold change vs veh, MED14 / RFU, SNORA58 / Fold change vs veh, SNORA58 / RFU, C1orf63 / Fold change vs veh, C1orf63 / RFU, LRRFIP1 / Fold change vs veh, LRRFIP1 / RFU, NDUFAF7 / Fold change vs veh, NDUFAF7 / RFU, SLC12A2 / Fold change vs veh, SLC12A2 / RFU, IBTK / Fold change vs veh, IBTK / RFU, ESF1 / Fold change vs veh, ESF1 / Fold change vs veh, TMEM50B / RFU, TAOK1 / Fold change vs veh, TAOK1 / RFU, ACBD3 / Fold change vs veh, ACBD3 / RFU, TMA16 / Fold change vs veh, TMA16 / RFU, RWDD3 / Fold change vs veh, RWDD3 / RFU, BCAT1 / Fold change vs veh, BCAT1 / RFU, EDEM3 / Fold change vs veh, EDEM3 / RFU, TMEM33 / Fold change vs veh, TMEM33 / RFU, WDR75 / Fold change vs veh, WDR75 / RFU, AHCTF1 / Fold change vs veh, AHCTF1 / RFU, TFRC / Fold change vs veh, TFRC / RFU, ZDHHC17 / Fold change vs veh, ZDHHC17 / RFU, NOM1 / Fold change vs veh, NOM1 / RFU, ARL8B / Fold change vs veh, ARL8B / RFU, ZBTB11 / Fold change vs veh, ZBTB11 / RFU, TAMM41 / Fold change vs veh, TAMM41 / RFU, KIAA1704 /// LOC100996395 / Fold change vs veh, KIAA1704 /// LOC100996395 / RFU, ING1 / Fold change vs veh, ING1 / RFU, TRMT61B / Fold change vs veh, TRMT61B / RFU, FUBP3 / Fold change vs veh, FUBP3 / RFU, TP53 / Fold change vs veh, TP53 / RFU, TNKS2 / Fold change vs veh, TNKS2 / RFU, ZFP14 / Fold change vs veh, ZFP14 / RFU, ACTR2 / Fold change vs veh, ACTR2 / RFU, PPP3R1 / Fold change vs veh, PPP3R1 / RFU, PIK3R1 / Fold change vs veh, PIK3R1 / RFU, HNRNPA1 / Fold change vs veh, HNRNPA1 / RFU, RNF170 / Fold change vs veh, RNF170 / RFU, ZNF28 / Fold change vs veh, ZNF28 / RFU, RNGTT / Fold change vs veh, RNGTT / RFU, OGT / Fold change vs veh, OGT / RFU, BRD1 / Fold change vs veh, BRD1 / RFU, MARS / Fold change vs veh, MARS / RFU, ZNF655 / Fold change vs veh, ZNF655 / RFU, FAHD1 / Fold change vs veh, FAHD1 / RFU, BDP1 / Fold change vs veh, BDP1 / RFU, LRRCC1 / Fold change vs veh, LRRCC1 / RFU, ARID1A / Fold change vs veh, ARID1A / RFU, ZNF146 / Fold change vs veh, ZNF146 / RFU, ZNF330 / Fold change vs veh, ZNF330 / RFU, GPN3 / Fold change vs veh, GPN3 / RFU, C9orf123 / Fold change vs veh, C9orf123 / RFU, N4BP2L2 / Fold change vs veh, N4BP2L2 / RFU, ARFIP1 / Fold change vs veh, ARFIP1 / RFU, FAM179B / Fold change vs veh, FAM179B / RFU, BCL10 / Fold change vs veh, BCL10 / RFU, UHRF1BP1L / Fold change vs veh, UHRF1BP1L / RFU, BET1 / Fold change vs veh, BET1 / RFU, CNOT2 / Fold change vs veh, CNOT2 / RFU, ZNF268 / Fold change vs veh, ZNF268 / Fold change vs veh, ZNF507 / RFU, DGCR2 / Fold change vs veh, DGCR2 / RFU, WDSUB1 / Fold change vs veh, WDSUB1 / Fold change vs veh, HSP90B1 /// MIR3652 / RFU, ADSS / Fold change vs veh, ADSS / RFU, GK / Fold change vs veh, GK / RFU, ZNF148 / Fold change vs veh, ZNF148 / RFU, TAF9 / Fold change vs veh, TAF9 / RFU, SLC1A5 / Fold change vs veh, SLC1A5 / RFU, SLMO2 / Fold change vs veh, SLMO2 / RFU, ABCC4 / Fold change vs veh, ABCC4 / RFU, LOC101060439 /// RAP1B / Fold change vs veh, LOC101060439 /// RAP1B / RFU, RFX7 / Fold change vs veh, RFX7 / RFU, GTPBP10 / Fold change vs veh, GTPBP10 / RFU, CNEP1R1 / Fold change vs veh, CNEP1R1 / RFU, BIVM-ERCC5 /// ERCC5 / Fold change vs veh, BIVM-ERCC5 /// ERCC5 / RFU, ILF3 / Fold change vs veh, ILF3 / RFU 11762660_at / Fold change /veh 11762660_at / RFU VCAN (11757783_s_at) / Fold change /veh VCAN (11757783_s_at) / RFU DDX43 (11728927_at) / Fold change /veh DDX43 (11728927_at) / RFU KRT8 (11758188_x_at) / Fold change /veh KRT8 (11758188_x_at) / RFU NKD1 (11759106_at) / Fold change /veh NKD1 (11759106_at) / RFU SRD5A1 (11742802_a_at) / Fold change /veh SRD5A1 (11742802_a_at) / RFU TPSAB1 /// TPSB2 (11721975_s_at) / Fold change /veh TPSAB1 /// TPSB2 (11721975_s_at) / RFU GSTM3 (11746129_a_at) / Fold change /veh GSTM3 (11746129_a_at) / RFU IL23R (11737362_x_at) / Fold change /veh IL23R (11737362_x_at) / RFU TMEM51 (11727254_a_at) / Fold change /veh TMEM51 (11727254_a_at) / RFU PIWIL2 (11732686_x_at) / Fold change /veh PIWIL2 (11732686_x_at) / RFU ORM1 (11744905_x_at) / Fold change /veh ORM1 (11744905_x_at) / RFU CCDC152 (11743942_at) / Fold change /veh CCDC152 (11743942_at) / RFU ECM1 (11717891_a_at) / Fold change /veh ECM1 (11717891_a_at) / RFU IL23R (11748794_a_at) / Fold change /veh IL23R (11748794_a_at) / RFU TNFAIP8L3 (11732012_x_at) / Fold change /veh TNFAIP8L3 (11732012_x_at) / RFU MBOAT4 (11741988_at) / Fold change /veh MBOAT4 (11741988_at) / RFU 11764193_at / Fold change /veh 11764193_at / RFU TMEM53 (11763286_at) / Fold change /veh TMEM53 (11763286_at) / RFU MAGEB2 (11727129_at) / Fold change /veh MAGEB2 (11727129_at) / RFU TMEM200A (11744735_a_at) / Fold change /veh TMEM200A (11744735_a_at) / RFU CCDC152 (11751479_a_at) / Fold change /veh CCDC152 (11751479_a_at) / RFU FAM211A (11726209_a_at) / Fold change /veh FAM211A (11726209_a_at) / RFU RGS16 (11746705_a_at) / Fold change /veh RGS16 (11746705_a_at) / RFU VCAN (11755009_s_at) / Fold change /veh VCAN (11755009_s_at) / RFU RHOB (11743442_s_at) / Fold change /veh RHOB (11743442_s_at) / RFU RGS16 (11720943_a_at) / Fold change /veh RGS16 (11720943_a_at) / RFU RGS16 (11720944_at) / Fold change /veh RGS16 (11720944_at) / RFU, VPS4B / Fold change vs veh, VPS4B / RFU, CREB1 / Fold change vs veh, CREB1 / RFU, DNAJC13 / Fold change vs veh, DNAJC13 / RFU, GNAQ / Fold change vs veh, GNAQ / RFU, CDK5R1 / Fold change vs veh, CDK5R1 / RFU, ZRANB3 / Fold change vs veh, ZRANB3 / RFU, CUL4A / Fold change vs veh, CUL4A / RFU, CCNY / Fold change vs veh, CCNY / RFU, UFL1 / Fold change vs veh, UFL1 / RFU, COG3 / Fold change vs veh, COG3 / RFU, DIAPH2 / Fold change vs veh, DIAPH2 / RFU, SKA2 / Fold change vs veh, SKA2 / RFU, AFF3 / Fold change vs veh, AFF3 / RFU, LMF1 / Fold change vs veh, LMF1 / RFU, IPO11 / Fold change vs veh, IPO11 / RFU, DFFB / Fold change vs veh, DFFB / RFU, FOXP1 / Fold change vs veh, FOXP1 / RFU, CARD8 / Fold change vs veh, CARD8 / RFU, STRN3 / Fold change vs veh, STRN3 / RFU, ADK / Fold change vs veh, ADK / RFU, RASSF2 / Fold change vs veh, RASSF2 / RFU, WIPF1 / Fold change vs veh, WIPF1 / RFU, LARP1B / Fold change vs veh, LARP1B / RFU, RASA1 / Fold change vs veh, RASA1 / RFU, RB1 / Fold change vs veh, RB1 / RFU, PPFIA1 / Fold change vs veh, PPFIA1 / RFU, MAT2A / Fold change vs veh, MAT2A / RFU, CCT5 / Fold change vs veh, CCT5 / RFU, WDR92 / Fold change vs veh, WDR92 / RFU, CUX1 / Fold change vs veh, CUX1 / RFU, TTC7A / Fold change vs veh, TTC7A / RFU, TMEM135 / Fold change vs veh, TMEM135 / RFU, DEPTOR / Fold change vs veh, DEPTOR / RFU, CPM / Fold change vs veh, CPM / RFU, DNAJB6 / Fold change vs veh, DNAJB6 / RFU, CACNA2D3 / Fold change vs veh, CACNA2D3 / RFU, DTX4 / Fold change vs veh, DTX4 / RFU, TFCP2 / Fold change vs veh, TFCP2 / RFU, GMCL1 /// GMCL1P1 / Fold change vs veh, GMCL1 /// GMCL1P1 / RFU, AEBP2 / Fold change vs veh, AEBP2 / RFU, SNHG1 /// SNORD22 /// SNORD25 /// SNORD26 /// SNORD27 /// SNORD28 /// SNORD29 /// SNORD31 / Fold change vs veh, SNHG1 /// SNORD22 /// SNORD25 /// SNORD26 /// SNORD27 /// SNORD28 /// SNORD29 /// SNORD31 / Fold change (Aza/veh), C12orf56 (ProbeSet 11735607_a_at) / Fold change (ACY-1035/veh), C12orf56 (ProbeSet 11735607_a_at) / Fold change (Aza/veh), FGFR1OP (ProbeSet 11751329_s_at) / Fold change (ACY-1035/veh), FGFR1OP (ProbeSet 11751329_s_at) / Fold change (Aza/veh), VPS36 (ProbeSet 11739960_a_at) / Fold change (ACY-1035/veh), VPS36 (ProbeSet 11739960_a_at) / RFU SYPL1 (11715823_x_at) / Fold change /veh SYPL1 (11715823_x_at) / RFU IGFBP7 (11715501_s_at) / Fold change /veh IGFBP7 (11715501_s_at) / RFU REEP3 (11722064_at) / Fold change /veh REEP3 (11722064_at) / RFU IGLL1 (11728026_x_at) / Fold change /veh IGLL1 (11728026_x_at): dose or concentration left out as unconfirmed
Settings: MV-4-11 cells, 48 hours

**Q.** How did the “RFU TMEM53 (11763286_at)” value turn out when Nc1ccc(-c2cccs2)cc1NC(=O)c1ccc2c(c1)cc(C1CC1)n2CCN1CCOCC1 [ACY-1035] was run?
**A.** 16.39 RFU
